Reference: publication PMC7662849, “Mimicking the Nucleosomal Context in Peptide-Based Binders of a H3K36me Reader Increases Binding Affinity While Altering the Binding Mode” (Molecules, 2020)
Where two headings read alike, the source gives them in different places. Positions of bridges follow the written chain, without caps; N, C: chain ends. Non-standard residues stand in square brackets, D forms with d. Residues, ends and D or L forms follow the SMILES beside them. Chains are numbered I, II in the order given. Lys(Me3) = C[N+](C)(C)CCCC[C@H](N)C(=O)O

Target: T1, PSIP1^PWWP (AA 2-100, Uniprot-ID: O75475) (Homo sapiens, UniProt O75475)
T1 construct: PSIP1^PWWP (AA 2-100, Uniprot-ID: O75475); GST (cleaved yes); made in house; host or cells: E. coli BL21 Rosetta2 (DE3)
T1 sequence (O75475 2-100): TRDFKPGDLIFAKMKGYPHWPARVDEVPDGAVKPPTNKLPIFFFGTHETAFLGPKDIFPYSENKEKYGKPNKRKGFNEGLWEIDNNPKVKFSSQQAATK
Experiment: NMR titration (15N-HSQC chemical shift perturbation) of peptides binding to PSIP1 PWWP domain
Procedure: Cells were grown to an OD of 0.6 and induced with 500 μM IPTG. The protein was expressed for 3 h at 37 °C. […] The GST-fusion protein was eluted using elution buffer (50 mM KPi pH 7.0, 100 mM KCl, 50 mM reduced glutathione, 1 mM DTT, complete EDTA-free protease inhibitor (Roche)). Thrombin cleavage of the GST-tag was carried out for 3 h at 37 °C after adding 10U of thrombin to the combined eluted fractions, then quenched by addition of 1 mM PMSF and incubation for 15 min at 37 °C. […] The PWWP-containing fractions were then combined and dialyzed to NMR buffer (20 mM NaPi (pH = 7.0), 150 mM NaCl, cOmplete protease inhibitor, 10% (v/v) D2O).
All peptides were dissolved in NMR buffer (20 mM NaPi (pH = 7.0), 150 mM NaCl, cOmplete protease inhibitor, 10% (v/v) D2O). The pH for all peptide stocks was adjusted to 7.0 using NH4OH. Determination of peptide stock concentrations was done using 1D NMR spectra with TSP as reference compound. […] The Val signal was verified by 2D NMR spectra (TOCSY, ^13C-HSQC).
All NMR experiments were carried out at 298 K on a Bruker Avance spectrometer operating at 750 MHz ^1H Larmor frequency with room-temperature probe. Processing was done using the Bruker’s TopSpin. Spectra were analyzed using Sparky (Goddard and Kneller, UCSF).
Titration data were fitted using MatLAB scripts (available upon request) using the fast-exchange assumption [50]. […] Profiles were selected either form the ^1H or ^15N dimension. A 1:1 binding model was assumed. […] The degrees of freedom are equal to total number of points NM compensated for the number of global variables (KD), the M offset-variables and M chemical shift differences. To obtain the 95% confidence limits in the KD, a one-dimensional grid search was performed either systematically increasing or decreasing the KD until the reduced χ^2 exceeded the 95% critical value according to an F-test.
Analysis of the bound-state chemical shifts was based on selected residues K14 (^1H/^15N), M15 (^1H), W21 (^1H), F44 (^15N) T47 (^1H/^15N), H48 (^1H), T50 (^1H/^15N) and A51 (^1H/^15N) due to their significant shift in all experiments.

SMILES | Kd (same titration and fit, limits from grid search, F-test, read-out: KD, 95% probability limits) | Kd (~300 µM 15N-PSIP1^PWWP, 20 mM NaPi pH 7.0, 150 mM NaCl, 298 K, 1:1 binding model, read-out: KD (global fit of NMR-derived binding curves)) | Kd (~300 µM 15N-PSIP1^PWWP, 20 mM NaPi pH 7.0, 150 mM NaCl, 10% D2O, 298 K, 1:1 binding model, fast exchange, global fit of all residues with significant CSP, read-out: KD, best-fit value (global fit of NMR titration data))
CC(=O)N[C@@H](CO)C(=O)N[C@@H](C)C(=O)N1CCC[C@H]1C(=O)N[C@@H](C)C(=O)N[C@H](C(=O)NCC(=O)NCC(=O)N[C@H](C(=O)N[C@@H](CCCC[N+](C)(C)C)C(=O)NCC(=O)NCC(=O)NCCCC[C@H](NC(=O)CNC(=O)CNC(=O)[C@H](CCC(=O)O)NC(=O)[C@H](CCC(=O)O)NC(=O)[C@H](CCC(=O)O)NC(=O)[C@H](CCC(=O)O)NC(=O)[C@H](CCC(=O)O)NC(C)=O)C(=O)NCC(=O)NCC(=O)N[C@@H](CCC(=O)O)C(=O)N[C@@H](CCC(=O)O)C(=O)N[C@@H](CCC(=O)O)C(=O)N[C@@H](CCC(=O)O)C(=O)N[C@@H](CCC(=O)O)C(N)=O)C(C)C)[C@@H](C)O [H3^(E5)2] (I: Ac-EEEEEGGKGGEEEEE-NH2 / II: Ac-SAPATGGV[Lys(Me3)]GG; amide I:8-II:C; N-terminus and C-terminus assumed) | 190 to 700 µM | 360 µM | 
CC(=O)N[C@@H](CO)C(=O)N[C@@H](C)C(=O)N1CCC[C@H]1C(=O)N[C@@H](C)C(=O)N[C@H](C(=O)NCC(=O)NCC(=O)N[C@H](C(=O)N[C@@H](CCCC[N+](C)(C)C)C(=O)N[C@@H](CCCCN)C(=O)N1CCC[C@H]1C(=O)N[C@@H](CCC(=O)O)C(=O)N[C@@H](CCC(=O)O)C(=O)N[C@@H](CCC(=O)O)C(=O)N[C@@H](CCC(=O)O)C(=O)N[C@@H](CCC(=O)O)C(=O)N[C@@H](CCC(=O)O)C(N)=O)C(C)C)[C@@H](C)O [H3^PE6] (Ac-SAPATGGV[Lys(Me3)]KPEEEEEE-NH2) |  |  | 1740 µM
